Source: US10227357B2, “Compounds and methods for kinase modulation, and indications therefor” (Plexxikon Inc., priority 2012, dated 2019)

target: T1, c-kit mutant D816V (Homo sapiens, UniProt P10721, D816V/DEL694-753); assay: c-Kit mutant D816V biochemical assay, AlphaScreen; conditions: c-kit D816V biochemical inhibitory activity; read-out: Biochemical activity (IC50 μM) Kit D816V
T1 construct: residues 551-934, kinase insertion domain residues 694-753 deleted; 6x-histidine (N); made in house; host or cells: E. coli Arctic Express (DE3) RIL (Stratagene)
Method in brief: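 Eight-point, threefold compound series incubated 30 min at room temperature with E. coli-produced D816V kinase, 10 μM ATP, Mg2+/Mn2+ HEPES buffer pH 7.2 and 5% DMSO. After EDTA stop, streptavidin and anti-phosphotyrosine (PY20) AlphaScreen beads gave the read-out, and IC50 was fitted from the concentration–signal curve.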

T1 sequence (P10721 with tags, fused parts or gaps DEL694-753/D816V): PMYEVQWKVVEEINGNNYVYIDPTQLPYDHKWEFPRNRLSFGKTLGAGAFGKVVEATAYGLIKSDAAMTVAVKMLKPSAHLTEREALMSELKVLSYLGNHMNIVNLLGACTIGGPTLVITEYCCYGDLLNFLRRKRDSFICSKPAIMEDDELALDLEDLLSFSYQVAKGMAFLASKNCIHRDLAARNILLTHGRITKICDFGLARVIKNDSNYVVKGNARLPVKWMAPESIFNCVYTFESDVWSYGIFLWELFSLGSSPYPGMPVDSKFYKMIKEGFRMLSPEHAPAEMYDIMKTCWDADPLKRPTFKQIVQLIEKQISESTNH

Row | SMILES | IC50
1 | Cc1ccccc1C(=O)c1c[nH]c2ncnc(N3CCN(C(=O)NCc4ccc(F)cc4)CC3)c12 [P-0160, N-[(4-fluorophenyl)methyl]-4-[5-(2-methylbenzoyl)-7H-pyrrolo[2,3-d]pyrimidin-4-yl]piperazine-1-carboxamide] | 1 to 10 µM
2 | CCCc1ccc(S(=O)(=O)NC2CCN(c3ncnc4[nH]c(C)cc34)CC2)cc1 [P-0658, N-[1-(6-methyl-7H-pyrrolo[2,3-d]pyrimidin-4-yl)-4-piperidyl]-4-propyl-benzenesulfonamide] | 1 to 10 µM
3 | C[C@H](NC(=O)N1CCN(c2ncnc3[nH]c(-c4ccc(F)cc4)cc23)C[C@H]1C)c1cccc(Cl)c1 [P-0701, (2R)-N-[(1S)-1-(3-chlorophenyl)ethyl]-4-[6-(4-fluorophenyl)-7H-pyrrolo[2,3-d]pyrimidin-4-yl]-2-methyl-piperazine-1-carboxamide] | 0.0001 to 1 µM
4 | COc1cccc([C@H](C)NC(=O)N2CCN(c3ncnc4[nH]c(-c5ccc(C#N)cc5)cc34)CC2)c1 [P-0069, 4-[6-(4-cyanophenyl)-7H-pyrrolo[2,3-d]pyrimidin-4-yl]-N-[(1S)-1-(3-methoxyphenyl)ethyl]piperazine-1-carboxamide] | 0.0001 to 1 µM
5 | C[C@H](NC(=O)N1CCN(c2ncnc3[nH]c(-c4ccc(C#N)cc4)cc23)CC1(C)C)c1cccc(OC(F)F)c1 [P-0698, 4-[6-(4-cyanophenyl)-7H-pyrrolo[2,3-d]pyrimidin-4-yl]-N-[(1S)-1-[3-(difluoromethoxy)phenyl]ethyl]-2,2-dimethyl-piperazine-1-carboxamide] | 0.0001 to 1 µM
6 | CC(C)Oc1ccc(S(=O)(=O)NC2CCN(c3ncnc4[nH]c(-c5ccc(Cl)cc5)cc34)CC2)cc1 [P-0468, N-[1-[6-(4-chlorophenyl)-7H-pyrrolo[2,3-d]pyrimidin-4-yl]-4-piperidyl]-4-isopropoxy-benzenesulfonamide] | 0.0001 to 1 µM
7 | O=C(NCc1ccc(F)cc1)N1CCN(c2ncnc3[nH]c(-c4ccc(F)cc4)cc23)CC1 [P-0090, N-[(4-fluorophenyl)methyl]-4-[6-(4-fluorophenyl)-7H-pyrrolo[2,3-d]pyrimidin-4-yl]piperazine-1-carboxamide] | 0.0001 to 1 µM
8 | Cc1cc2c(C3=CCC(NS(=O)(=O)c4ccc(OC(F)F)cc4)CC3)ncnc2[nH]1 (centres unmarked) [P-0653, 4-(difluoromethoxy)-N-[4-(6-methyl-7H-pyrrolo[2,3-d]pyrimidin-4-yl)cyclohex-3-en-1-yl]benzenesulfonamide] | 1 to 10 µM
9 | Nc1ccc(-c2ncnc3cc(-c4ccc(F)cc4)sc23)cc1 [P-0634, 4-[6-(4-fluorophenyl)thieno[3,2-d]pyrimidin-4-yl]aniline] | 1 to 10 µM
10 | CC(NC(=O)N1CCN(c2ncnc3[nH]c(-c4ccc(Cl)cc4)cc23)C[C@H]1C)c1ccc(Cl)cc1 (stereo in doubt) [P-0021, (2R)-N-[(1S)-1-(4-chlorophenyl)ethyl]-4-[6-(4-chlorophenyl)-7H-pyrrolo[2,3-d]pyrimidin-4-yl]-2-methyl-piperazine-1-carboxamide] | 1 to 10 µM
11 | CCCS(=O)(=O)Nc1ccc(-c2ncnc3cc(OC)c(OC)cc23)cc1F [P-0275, N-[4-(6,7-dimethoxyquinazolin-4-yl)-2-fluoro-phenyl]propane-1-sulfonamide] | 1 to 10 µM
12 | CC[C@H](NC(=O)N1CCN(c2ncnc3[nH]c(-c4ccncc4)cc23)C[C@@H]1C)c1ccccc1 [P-0048, (2S)-2-methyl-N-[(1S)-1-phenylpropyl]-4-[6-(4-pyridyl)-7H-pyrrolo[2,3-d]pyrimidin-4-yl]piperazine-1-carboxamide] | 0.0001 to 1 µM
13 | COc1cccc([C@H](C)NC(=O)N2CCN(c3ncnc4[nH]c(-c5ccncc5)cc34)C[C@@H]2C)c1 [P-0051, (2S)-N-[(1S)-1-(3-methoxyphenyl)ethyl]-2-methyl-4-[6-(4-pyridyl)-7H-pyrrolo[2,3-d]pyrimidin-4-yl]piperazine-1-carboxamide] | 0.0001 to 1 µM
14 | COc1cccc(NC(=O)N2CCN(c3ncnc4[nH]cc(-c5ccccc5)c34)CC2)c1 [P-0228, N-(3-methoxyphenyl)-4-(5-phenyl-7H-pyrrolo[2,3-d]pyrimidin-4-yl)piperazine-1-carboxamide] | 1 to 10 µM
15 | CCS(=O)(=O)Nc1ccc(-c2ncnc3cc(-c4ccc(F)cc4)sc23)cc1 [P-0630, N-[4-[6-(4-fluorophenyl)thieno[3,2-d]pyrimidin-4-yl]phenyl]ethanesulfonamide] | 1 to 10 µM
16 | Cc1cc2c(-c3ccc(NS(=O)(=O)c4ccc(C(C)C)cc4)cc3)ncnc2[nH]1 [P-0306, 4-isopropyl-N-[4-(6-methyl-7H-pyrrolo[2,3-d]pyrimidin-4-yl)phenyl]benzenesulfonamide] | 1 to 10 µM
17 | C[C@H](NC(=O)N1CCN(c2ncnc3[nH]c(-c4ccc(C#N)cc4)cc23)CC1(C)C)c1ccc(F)cc1 [P-0685, 4-[6-(4-cyanophenyl)-7H-pyrrolo[2,3-d]pyrimidin-4-yl]-N-[(1S)-1-(4-fluorophenyl)ethyl]-2,2-dimethyl-piperazine-1-carboxamide] | 1 to 10 µM
18 | C[C@H](NC(=O)N1CCN(c2ncnc3cc(-c4ccc(F)cc4)sc23)C[C@H]1C)c1ccc(F)cc1 [P-0601, (2R)-N-[(1S)-1-(4-fluorophenyl)ethyl]-4-[6-(4-fluorophenyl)thieno[3,2-d]pyrimidin-4-yl]-2-methyl-piperazine-1-carboxamide] | 1 to 10 µM

target: T2, c-kit kinase (Homo sapiens, UniProt P10721); assay: c-Kit biochemical assay, AlphaScreen, 10 μM ATP; conditions: c-kit biochemical inhibitory activity; read-out: Biochemical activity (IC50 μM) Kit
T2 construct: The c-kit (or kinase domain thereof) is an active kinase in AlphaScreen; poly-Histidine tag (in-house protein only) (cleaved yes); host or cells: E. coli BL21(DE3)RIL, co-expressed with PTP1B
Method: IC50 values are determined with respect to inhibition of c-Kit kinase activity, where inhibition of phosphorylation of a peptide substrate is measured as a function of compound concentration. Compounds to be tested were dissolved in DMSO to a concentration of 20 mM. These were diluted 30 μl into 120 μl of DMSO (4 mM) and 1 μl was added to an assay plate. These were then serially diluted 1:3 (50 μl to 100 μl DMSO) for a total of 8 points. Plates were prepared such that each kinase reaction is 20 μl in 1× kinase buffer (50 mM HEPES, pH 7.2, 5 mM MgCl2, 5 mM MnCl2, 0.01% NP-40, 0.2% BSA), 5% DMSO and 10 μM ATP. […] C-kit kinase was at 0.1 ng per sample. After incubation of the kinase reaction for 1 hour at room temperature, 5 μl of donor beads (Streptavidin coated beads (Perkin Elmer Life Science) final concentration 1 μg/ml) in stop buffer (50 mM EDTA in 1× kinase buffer) was added, the sample was mixed and incubated for 20 minutes at room temperature before adding 5 μl of acceptor beads (PY20 coated beads (Perkin Elmer Life Science) final concentration 1 μg/ml) in stop buffer. The samples were incubated for 60 minutes at room temperature and the signal per well was read on AlphaQuest reader. […] The signal vs. compound concentration was used to determine the IC50.
Complementary DNA cloned from various human tissues were purchased from Invitrogen, and these were used as substrates in the PCR reactions. Specific custom synthetic oligonucleotide primers were designed to initiate the PCR product, and also to provide the appropriate restriction enzyme cleavage sites for ligation with the plasmids. The entire sequence encoding the enzyme was made through a gene synthesis procedure, using custom synthetic oligonucleotides covering the entire coding sequence (Invitrogen, see below).
The plasmid used for ligation with the kinase-encoding inserts was derivative of pET (Novagen) for expression using E. coli. The Kit kinase was engineered to include a Histidine tag for purification using metal affinity chromatography. The kinase-encoding plasmid was engineered as bicistronic mRNA to co-express a second protein that modifies the kinase protein during its expression in the host cell. Protein tyrosine phosphatase 1B (PTP), was co-expressed for dephosphorylation of the phospho-Tyrosines.
For protein expression, the plasmid containing the Kit gene was transformed into E. coli strains BL21(DE3)RIL and transformants selected for growth on LB agar plates containing appropriate antibiotics. Single colonies were grown overnight at 37° C. in 200 ml TB (Terrific broth) media. 16×1 L of fresh TB media in 2.8 L flasks were inoculated with 10 ml of overnight culture and grown with constant shaking at 37° C. Once cultures reached an absorbance of 1.0 at 600 nm, IPTG was added and cultures were allowed to grow for a further 12 to 18 hrs at temperatures ranging from 12-30° C. Cells were harvested by centrifugation and pellets frozen at […] until ready for lysis.
For protein Purification; frozen E. coli cell pellets were resuspended in lysis buffer and lysed using standard mechanical methods. Protein was purified via poly-Histidine tags using immobilized metal affinity purification IMAC. The Kit kinase was purified using a 3 step purification process utilizing; IMAC, size exclusion chromatography and ion exchange chromatography. The poly-Histidine tag was removed using Thrombin (Calbiochem).

T2 sequence (P10721 26-976): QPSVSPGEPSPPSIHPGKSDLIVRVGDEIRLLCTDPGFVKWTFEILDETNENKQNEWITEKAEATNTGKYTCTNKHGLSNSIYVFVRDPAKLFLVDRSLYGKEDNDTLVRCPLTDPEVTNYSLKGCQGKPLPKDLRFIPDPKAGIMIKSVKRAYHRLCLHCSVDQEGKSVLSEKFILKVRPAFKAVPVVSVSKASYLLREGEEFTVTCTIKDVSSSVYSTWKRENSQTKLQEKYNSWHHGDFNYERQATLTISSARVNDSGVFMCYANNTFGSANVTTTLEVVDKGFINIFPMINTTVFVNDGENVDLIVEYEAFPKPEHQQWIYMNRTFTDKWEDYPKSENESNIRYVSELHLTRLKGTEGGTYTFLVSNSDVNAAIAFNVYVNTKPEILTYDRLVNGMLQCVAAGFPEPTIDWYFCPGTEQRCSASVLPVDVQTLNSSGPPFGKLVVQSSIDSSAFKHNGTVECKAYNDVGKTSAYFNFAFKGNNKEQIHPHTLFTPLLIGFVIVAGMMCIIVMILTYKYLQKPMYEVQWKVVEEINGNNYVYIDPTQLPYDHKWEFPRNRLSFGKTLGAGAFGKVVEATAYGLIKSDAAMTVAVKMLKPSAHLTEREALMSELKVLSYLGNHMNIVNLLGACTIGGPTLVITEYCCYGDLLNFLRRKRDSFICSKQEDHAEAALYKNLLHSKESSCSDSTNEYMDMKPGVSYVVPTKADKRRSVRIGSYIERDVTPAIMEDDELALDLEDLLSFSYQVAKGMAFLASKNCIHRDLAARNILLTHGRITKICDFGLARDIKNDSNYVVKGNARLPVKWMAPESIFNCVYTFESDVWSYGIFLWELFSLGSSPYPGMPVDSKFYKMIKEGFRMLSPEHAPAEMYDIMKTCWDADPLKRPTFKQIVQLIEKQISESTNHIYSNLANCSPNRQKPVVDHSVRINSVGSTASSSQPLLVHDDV

Row | SMILES | IC50
19 | COc1cccc([C@H](C)NC(=O)N2CCN(c3ncnc4cc(N5CCOCC5)sc34)CC2)c1 [P-0548, N-[(1S)-1-(3-methoxyphenyl)ethyl]-4-(6-morpholinothieno[3,2-d]pyrimidin-4-yl)piperazine-1-carboxamide] | 1 to 10 µM
20 | COc1cc2ncnc(-c3ccc(N)c(F)c3)c2cc1OC [P-0276, 4-(6,7-dimethoxyquinazolin-4-yl)-2-fluoro-aniline] | 1 to 10 µM
21 | O=C1CCCN1c1ccc(S(=O)(=O)NC2CCN(c3ncnc4[nH]c(-c5ccc(Cl)cc5)cc34)CC2)cc1 [P-0473, N-[1-[6-(4-chlorophenyl)-7H-pyrrolo[2,3-d]pyrimidin-4-yl]-4-piperidyl]-4-(2-oxopyrrolidin-1-yl)benzenesulfonamide] | 10 to 200 µM
22 | COc1ccc(S(=O)(=O)N2CCN(c3ncnc4[nH]ccc34)CC2)c(N)c1 [P-0190, 5-methoxy-2-[4-(7H-pyrrolo[2,3-d]pyrimidin-4-yl)piperazin-1-yl]sulfonyl-aniline] | 10 to 200 µM
23 | O=C(NCc1ccc(C(F)(F)F)nc1)N1CCN(c2ncnc3[nH]c(-c4ccc(Cl)cc4)cc23)CC1 [P-0180, 4-[6-(4-chlorophenyl)-7H-pyrrolo[2,3-d]pyrimidin-4-yl]-N-[[6-(trifluoromethyl)-3-pyridyl]methyl]piperazine-1-carboxamide] | 10 to 200 µM
24 | Cc1ccc(S(=O)(=O)Nc2ccc(-c3ncnc4cc(-c5cnn(C)c5)sc34)cc2)cc1 [P-0628, 4-methyl-N-[4-[6-(1-methylpyrazol-4-yl)thieno[3,2-d]pyrimidin-4-yl]phenyl]benzenesulfonamide] | 0.0001 to 1 µM
25 | O=C(Nc1ccccc1)c1cc2c(N3CCN(C(=O)NCc4ccc(F)cc4)CC3)ncnc2[nH]1 [P-0193, 4-[4-[(4-fluorophenyl)methylcarbamoyl]piperazin-1-yl]-N-phenyl-7H-pyrrolo[2,3-d]pyrimidine-6-carboxamide] | 10 to 200 µM
26 | Fc1ccc(-c2cc3c(-c4ccc(F)cc4)ncnc3[nH]2)cc1 [P-0395, 4,6-bis(4-fluorophenyl)-7H-pyrrolo[2,3-d]pyrimidine] | 0.0001 to 1 µM
